Source: PMC5190053, “Blocking the PAH2 domain of Sin3A inhibits tumorigenesis and confers retinoid sensitivity in triple negative breast cancer” (Oncotarget, 2016)

Target: T1, mSin3A PAH2 domain; SIN3A PAH2; Sin3A
T1 construct: PAH2 (paired amphipathic helix 2) domain only
Assay: fluorescence anisotropy competition assay
Type: binding, Mus musculus
Conditions: conditions cited to earlier work

O=C(O)c1cccc2c1NC(c1cccc(Cl)c1Cl)C1CC=CC21 (stereo not shown) [C16, 4-(2,3-Dichlorophenyl)-3a,4,5,9b-tetrahydro-3H-cyclopenta[c]quinoline-6-carboxylic acid]
Ki: 23.6 µM
